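Values below derive from 48-hour exposures of cells grown in 96-well plates, with endpoints linearly interpolated between the two concentrations bracketing the appropriate inhibition level. GI50 = concentration required for 50% inhibition of growth.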 Activity calls are given as the source filed them. Rule as the data show it: active = GI50 up to about 1.1 µM and inactive = higher.
Key:
Assay in all cases: NCI tumour cell line growth inhibition, 48 h
KM12 = system: KM12
HCT-15 = system: HCT-15
MDA-N = system: MDA-N
RPMI-8226 = system: RPMI-8226
Malme-3M = system: Malme-3M
RXF 393 = system: RXF 393
SN12C = system: SN12C
SNB-19 = system: SNB-19
HCT-116 = system: HCT-116
MDA-MB-435 = system: MDA-MB-435
NCI-H522 = system: NCI-H522
LOX IMVI = system: LOX IMVI
PC-3 = system: PC-3
NCI-H226 = system: NCI-H226
MDA-MB-231 = system: MDA-MB-231
SK-OV-3 = system: SK-OV-3
DU-145 = system: DU-145
SF-539 = system: SF-539
CCRF-CEM = system: CCRF-CEM

Measured: GI50

O=c1[nH]c2nc(S)nc(S)c2[nH]1
inactive: KM12 > 100 µM | MDA-N > 100 µM | RPMI-8226 > 100 µM | Malme-3M > 100 µM | RXF 393 > 100 µM | SN12C > 100 µM | SNB-19 > 100 µM | HCT-116 > 100 µM | MDA-MB-435 > 100 µM | NCI-H522 > 100 µM | LOX IMVI > 100 µM | PC-3 > 100 µM | NCI-H226 > 100 µM | MDA-MB-231 > 100 µM
> 100 µM: HCT-15

Oc1ccc(-c2c3c(nc4c2CCc2ccc(Br)cc2-4)-c2cc(Br)ccc2CC3)cc1
18.9 µM: HCT-15
inactive: KM12 19.7 µM | SK-OV-3 16.5 µM | MDA-N 18.6 µM | RPMI-8226 26.9 µM | Malme-3M 25.8 µM | SN12C 20 µM | SNB-19 23.6 µM | HCT-116 24.4 µM | MDA-MB-435 20 µM | NCI-H522 25.6 µM | DU-145 25.1 µM | PC-3 17.9 µM | NCI-H226 23.3 µM | MDA-MB-231 17.7 µM

COc1ccc(-n2c(-c3ccccc3)cc(-c3cccs3)c2-c2cccs2)cc1
active: CCRF-CEM 0.0818 µM
> 100 µM: HCT-15
inactive: KM12 > 100 µM | SK-OV-3 > 100 µM | RPMI-8226 > 100 µM | RXF 393 76.9 µM | SN12C > 100 µM | HCT-116 > 100 µM | MDA-MB-435 > 100 µM | NCI-H522 > 100 µM | LOX IMVI > 100 µM | DU-145 > 100 µM | SF-539 39.1 µM | NCI-H226 > 100 µM | MDA-MB-231 10.1 µM

N#CC1C(=O)NC(=O)C(C#N)C1c1ccc(Cl)c(Cl)c1 (configuration not stated)
inactive: KM12 33.7 µM | SK-OV-3 > 100 µM | Malme-3M > 100 µM | RXF 393 21 µM | SNB-19 91.2 µM | HCT-116 13.9 µM | MDA-MB-435 22.7 µM | NCI-H522 15.7 µM | LOX IMVI 17.1 µM | DU-145 37.5 µM | SF-539 19.4 µM | PC-3 28.2 µM | CCRF-CEM 13.6 µM
21.5 µM: HCT-15
active: SN12C < 0.01 µM | MDA-MB-231 < 0.01 µM

CN/N=C(/CC(=O)c1sc(-n2nc(-c3ccccc3)cc2-c2ccccc2)nc1C)C(=O)Nc1ccc(Cl)c(Cl)c1
inactive: KM12 41.7 µM | SK-OV-3 24.6 µM | RPMI-8226 40.1 µM | Malme-3M 78.3 µM | RXF 393 26.2 µM | SN12C 66.5 µM | SNB-19 > 100 µM | HCT-116 34.5 µM | NCI-H522 28.1 µM | LOX IMVI 22.5 µM | SF-539 40.2 µM | CCRF-CEM 27.7 µM | NCI-H226 17.2 µM
31.3 µM: HCT-15

CC1(C)C(C#N)C1C1=C(N2CCOCC2)[C@]2(C)C(OC(=O)c3ccccc3)CC[C@@H]2C1 (some centres not stated)
inactive: KM12 > 100 µM | SK-OV-3 > 100 µM | MDA-N > 100 µM | Malme-3M > 100 µM | RXF 393 35.6 µM | SN12C > 100 µM | SNB-19 > 100 µM | HCT-116 33.7 µM | MDA-MB-435 > 100 µM | NCI-H522 > 100 µM | SF-539 > 100 µM | PC-3 > 100 µM | CCRF-CEM 31 µM | NCI-H226 > 100 µM | MDA-MB-231 > 100 µM
> 100 µM: HCT-15

O=C1CCC2(c3ccc(Cl)cc3)Nc3ncncc3N12 (configuration not stated)
active: MDA-MB-231 0.001 µM
inactive: KM12 > 10 µM | SK-OV-3 > 10 µM | MDA-N > 10 µM | Malme-3M > 10 µM | SN12C > 10 µM | SNB-19 > 10 µM | MDA-MB-435 > 10 µM | NCI-H522 > 10 µM | LOX IMVI > 10 µM | DU-145 > 10 µM | SF-539 > 10 µM | PC-3 > 10 µM | CCRF-CEM > 10 µM | NCI-H226 > 10 µM
> 10 µM: HCT-15

COc1ccc(CC2C(=O)NC(C)C(=O)N(C)C3C(=O)N(C)C(Cc4ccc(O)c(c4)Oc4ccc(cc4)C3O)C(=O)NC(C)C(=O)NC(C)C(=O)N2C)cc1.COc1ccc(CC2C(=O)NC(C)C(=O)N(C)C3Cc4ccc(cc4)Oc4cc(ccc4O)CC(C(=O)NC(C)C(=O)NC(C)C(=O)N2C)N(C)C3=O)cc1 (configuration not stated)
active: KM12 0.0024 µM | SK-OV-3 0.0179 µM | RPMI-8226 0.0019 µM | SNB-19 0.000638 µM | HCT-116 0.00108 µM | MDA-MB-435 0.004 µM | NCI-H522 0.01 µM | LOX IMVI 0.00237 µM | DU-145 0.00364 µM | SF-539 0.00102 µM | PC-3 0.00601 µM | CCRF-CEM 0.00177 µM | NCI-H226 0.00233 µM | MDA-MB-231 0.0115 µM
0.483 µM: HCT-15

COC(=O)C1=C(C(=O)OC)SC2(S1)C(C(=O)OC)=C(C(=O)OC)Sc1c2ss/c1=N/C(C)(C)C
0.622 µM: HCT-15
active: RXF 393 0.541 µM | HCT-116 0.769 µM | NCI-H522 0.555 µM | LOX IMVI 1.04 µM | DU-145 0.877 µM | CCRF-CEM 0.345 µM
inactive: KM12 1.57 µM | SK-OV-3 5.18 µM | Malme-3M 2.18 µM | SN12C 1.22 µM | SNB-19 2.13 µM | MDA-MB-435 1.55 µM | SF-539 1.27 µM | PC-3 1.26 µM | NCI-H226 3.18 µM | MDA-MB-231 1.64 µM

CCn1c2ccccc2c2cc(/N=N\c3ccc(C#N)cc3)ccc21
inactive: KM12 83.6 µM | SK-OV-3 40.8 µM | MDA-N 69.5 µM | Malme-3M 18.7 µM | SN12C > 100 µM | SNB-19 19.4 µM | HCT-116 50.4 µM | MDA-MB-435 > 100 µM | NCI-H522 38.9 µM | LOX IMVI 23.7 µM | DU-145 62.7 µM | SF-539 32.8 µM | PC-3 > 100 µM | CCRF-CEM > 100 µM | NCI-H226 56.8 µM | MDA-MB-231 17 µM
> 100 µM: HCT-15

c1ccc(OCCSCCCCCCCCCCSCCOc2ccccc2)cc1
> 100 µM: HCT-15
inactive: KM12 > 100 µM | SK-OV-3 > 100 µM | RPMI-8226 > 100 µM | Malme-3M 14.7 µM | RXF 393 > 100 µM | SN12C > 100 µM | SNB-19 > 100 µM | NCI-H522 > 100 µM | LOX IMVI > 100 µM | SF-539 > 100 µM | CCRF-CEM > 100 µM | NCI-H226 > 100 µM

O=C1/C(=C/c2ccc(Cl)cc2)NC(=S)N1CN1CCOCC1
inactive: KM12 > 100 µM | SK-OV-3 > 100 µM | MDA-N > 100 µM | RPMI-8226 > 100 µM | Malme-3M > 100 µM | SN12C > 100 µM | SNB-19 > 100 µM | HCT-116 > 100 µM | MDA-MB-435 > 100 µM | LOX IMVI > 100 µM | DU-145 > 100 µM | PC-3 > 100 µM | CCRF-CEM 74 µM | NCI-H226 > 100 µM | MDA-MB-231 > 100 µM
> 100 µM: HCT-15

Nc1ccn(C2CC3OCC3O2)c(=O)n1 (configuration not stated)
inactive: KM12 > 100 µM | SK-OV-3 > 100 µM | MDA-N > 100 µM | RPMI-8226 > 100 µM | SN12C > 100 µM | SNB-19 > 100 µM | HCT-116 > 100 µM | MDA-MB-435 > 100 µM | NCI-H522 > 100 µM | LOX IMVI > 100 µM | DU-145 > 100 µM | SF-539 > 100 µM | PC-3 > 100 µM | CCRF-CEM > 100 µM | NCI-H226 > 100 µM | MDA-MB-231 > 100 µM
> 100 µM: HCT-15
